This note sets out measurements from patent US20260092061A1, “COMPOUNDS FOR TARGETED PROTEIN DEGRADATION” (Amphista Therapeutics Limited, priority 2022, published 2026).

Each structure is given as a SMILES string.

This assay has as its target T1, BRD9 (Homo sapiens, UniProt Q9H8M2).
T1 sequence (Q9H8M2 1-597): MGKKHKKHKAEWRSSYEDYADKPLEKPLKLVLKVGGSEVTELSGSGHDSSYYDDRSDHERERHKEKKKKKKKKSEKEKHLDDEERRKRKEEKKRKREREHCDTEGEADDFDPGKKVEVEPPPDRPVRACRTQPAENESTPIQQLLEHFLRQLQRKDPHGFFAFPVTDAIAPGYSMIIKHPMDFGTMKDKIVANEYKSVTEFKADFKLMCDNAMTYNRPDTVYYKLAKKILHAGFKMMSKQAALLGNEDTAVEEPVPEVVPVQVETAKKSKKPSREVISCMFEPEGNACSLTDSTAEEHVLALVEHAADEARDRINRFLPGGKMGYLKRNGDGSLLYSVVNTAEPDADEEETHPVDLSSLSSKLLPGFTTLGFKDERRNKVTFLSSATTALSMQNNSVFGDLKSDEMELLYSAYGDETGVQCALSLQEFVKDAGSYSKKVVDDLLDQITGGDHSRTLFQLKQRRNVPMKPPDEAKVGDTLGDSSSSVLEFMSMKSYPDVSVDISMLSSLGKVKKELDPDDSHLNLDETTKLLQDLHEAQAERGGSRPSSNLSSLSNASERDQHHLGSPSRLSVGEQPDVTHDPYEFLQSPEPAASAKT
The assay is described as follows: Degradation of BRD9 (IF), immunofluorescence in MV4-11 cells, 24 hours (Assay Protocol 2). It is filed as cell-based. More on the design: A suspension of MV4-11 cells (ATCC CRL-9591) was prepared; host or cells: MV4-11. Particulars: BRD9 degradation; for DC50: Assay protocol 2, read-out: DC50; for Dmax: MV4-11, Assay protocol 2, read-out: Dmax. In outline: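 MV4-11 cells treated with compound 24 h at 37° C., then fixed, permeabilised and immunostained for BRD9 (anti-BRD9 E4Q3F, Alexa 647 secondary, Hoechst counterstain). High-content imaging quantified nuclear BRD9 signal; % BRD9 remaining normalised to DMSO and 100 nM CFT-8634 controls.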

As usually defined, the DC50 is the concentration at which degradation of the target reaches its halfway point. As a reminder, the Dmax is the greatest extent of degradation seen.

As to `CC[C@H]1c2cccc(CN3CCN(Cc4c(OC)cc(-c5cn(C)c(=O)c(C)c5C)cc4OC)C4(CC4)C3)c2CCN1C(=O)/C(C#N)=C/C(C)(C)CF` (single isomer, unassigned) [Compound C104, (E/Z)-2-(5-((4-(2,6-dimethoxy-4-(1,4,5-trimethyl-6-oxo-1,6-dihydropyridin-3-yl)benzyl)-4,7-diazaspiro[2.5]octan-7-yl)methyl)-1-ethyl-1,2,3,4-tetrahydroisoquinoline-2-carbonyl)-6-fluoro-4,4-dimethylpent-2-enenitrile], the half-maximal degradation concentration (DC50) was in the range of 25 to 1000 nM and the Dmax lay within 40 to 70%.

In the case of `COc1cc(-c2cn(C)c(=O)c(C)c2C)cc(OC)c1CN1CCN(Cc2cccc3c2CCN(C(=O)/C(C#N)=C/C(C)(C)C)C3C)[C@H](C)C1` (mixture of isomers) [Compound B119, (E/Z)-2-(5-(((R)-4-(2,6-dimethoxy-4-(1,4,5-trimethyl-6-oxo-1,6-dihydropyridin-3-yl)benzyl)-2-methylpiperazin-1-yl)methyl)-1-methyl-1,2,3,4-tetrahydroisoquinoline-2-carbonyl)-4,4-dimethylpent-2-enenitrile], the DC50 is 10 to 25 nM and the Dmax is 40 to 70%.

Consider `COc1cc(-c2cn(C)c(=O)c(C)c2C)cc(OC)c1CN1CCN(Cc2cccc3c2CCN(C(=O)/C(C#N)=C/C(C)(C)C)C3C)C(=O)C1` (mixture of isomers) [Compound B155, (E/Z)-2-(5-((4-(2,6-dimethoxy-4-(1,4,5-trimethyl-8-oxo-1,6-dihydropyridin-3-yl)benzyl)-2-oxopiperazin-1-yl)methyl)-1-methyl-1,2,3,4-tetrahydroisoquinoline-2-carbonyl)-4,4-dimethylpent-2-enenitrile], for which the DC50 fell in the range of 25 to 1000 nM and the maximal degradation (Dmax) was in the range of 40 to 70%.

Consider `COc1cc(-c2cn(C)c(=O)c(C)c2C)cc(OC)c1CN1CCN(Cc2cccc3c2CCN(C(=O)/C(C#N)=C/C(C)(C)C)C3C)CC1(C)C` (mixture of isomers) [Compound B159, (E/Z)-2-(5-((4-(2,6-dimethoxy-4-(1,4,5-trimethyl-6-oxo-1,6-dihydropyridin-3-yl)benzyl)-3,3-dimethylpiperazin-1-yl)methyl)-1-methyl-1,2,3,4-tetrahydroisoquinoline-2-carbonyl)-4,4-dimethylpent-2-enenitrile], for which the 50% degradation concentration (DC50) was < 1.25 nM and the Dmax fell in the range of 40 to 70%.

For `COc1cc(-c2cn(C)c(=O)c(C)c2C)cc(OC)c1CN1CCCN(Cc2cccc3c2CCN(C(=O)/C(C#N)=C/C(C)(C)CF)[C@@H]3C)CC1` (single isomer, unassigned) [Compound C19], the DC50 is 1.25 to 10 nM and the greatest degradation seen (Dmax) is > 75%.

Take `COc1cc(-c2cn(C)c(=O)c(C)c2C)cc(OC)c1CN1CCC(COc2ccc3c(c2)[C@H](C)N(C(=O)/C(C#N)=C/C(C)(C)C)CC3)CC1` [Compound C61]: the half-maximal degradation concentration (DC50) was < 1.25 nM and the maximal degradation (Dmax) was > 75%.

With `CCC[C@H]1c2cccc(CN3CCN(Cc4c(OC)cc(-c5cn(C)c(=O)c(C)c5C)cc4OC)CC34CC4)c2CCN1C(=O)/C(C#N)=C/C(C)(C)C` (single isomer, unassigned) [Compound C100, (E/Z)-2-(5-((7-(2,6-dimethoxy-4-(1,4,5-trimethyl-6-oxo-1,6-dihydropyridin-3-yl)benzyl)-4,7-diazaspiro[2.5]octan-4-yl)methyl)-1-propyl-1,2,3,4-tetrahydroisoquinoline-2-carbonyl)-4,4-dimethylpent-2-enenitrile], the DC50 was < 1.25 nM and the Dmax is > 75%.

For `COc1cc(-c2cn(C)c(=O)c(C)c2C)cc(OC)c1CN1CCC2(CC1)CCN(c1cccc3c1CCN(C(=O)/C(C#N)=C/C(C)(C)C)[C@@H]3C)C2` [Compound C47], the DC50 was in the range of 1.25 to 10 nM and the greatest degradation seen (Dmax) is > 75%.
